Marks after values point to notes of the source that are not given here.
Assays:
Assay type in all cases: in vivo
[1] = system: tobacco mosaic virus (TMV); experiment: Induction of resistance to tobacco mosaic virus in tobacco (foliar spray); settings: 20 μg/ml spray; for Effectiveness Covered (% decline in TMV lesions vs UTC): covered leaf (systemic response); for Effectiveness Uncovered (% decline in TMV lesions vs UTC): uncovered leaf (local response)
Method: Peptides were tested for the induction of resistance to tobacco mosaic virus (TMV) in tobacco. Briefly, three tobacco plants at 6-8 weeks old were selected per group (samples and controls). The bottom-most leaf of the plant was covered and the plant was sprayed with a solution of water (untreated control—UTC), peptide, or Proact (positive control). The spray was applied until the leaves were fully wetted, indicated by liquid dripping from the leaves. The plants were then allowed to dry and the leaf covering was removed.
Three days post-treatment, the previously-covered leaf and a leaf on the opposite side of the plant were then lightly dusted with diatomaceous earth and 20 ul of a 1.7 μg/ml solution of purified tobacco mosaic virus was applied. The TMV solution was then spread across the leaf surface by lightly rubbing solution and the diatomaceous earth across the surface of the leaves. Two minutes after inoculation, the diatomaceous earth was rinsed off the leaves with water. 3 days after TMV inoculation, the leaves were scored based on the number of TMV lesions observed. The leaf was also scored for signs of the hypersensitive response, including yellowing and wilting of the affected leaves.
Effectiveness described in Table 5 refers to the % decline in TMV lesions on treated vs UTC plants. A reduction of TMV on covered leaves indicates a systemic immune response in the plant while reduction on uncovered leaves indicates a local response. Asterisks indicate that the P-value derived from a T-test was <0.05.

corn = experiment: Drought resistance in corn (foliar spray); settings: for Dry Weight Increase / Fresh Weight Increase: corn, vs untreated control
Method: The effectiveness of peptide treatment in reducing drought stress was assessed in corn. 3.5 inch pots were filled with Sunshine #1 soil (SunGro Horticulture), fertilized with a 20-10-20 mixture. The soil was soaked and drained overnight. Seeds (either corn or soy, manually inspected to ensure uniform seed size) were planted at a depth of 1 inch for germination. Plants were grown in a greenhouse under 16 hour light days at >70° F. and 8 hour dark nights at >65° F. Prior to drought conditions, the plants were well-watered.
When the plants reached the V1 stage, plants were culled to achieve a uniform height (abnormally large and small plants were removed). Plants were then randomly assigned to control (spray without peptide) or treatment (spray with peptide) groups and heights were measured. Peptide was made up in a solution of 0.2 μg/ml or 2μg/ml in distilled water+0.01% Tween-20, and applied as a fine mist from a spray bottle until the solution drips from the leaves. After the peptide solutions were dried, the plants were again randomized in a randomized complete block design. Drought stress was initiated after the peptide treatment. This was caused by maintaining the water level at 25-50% of the maximum capacity for water (capacity was decided as the weight of the pot filled with saturated soil minus the weight of the filled pot prior to adding water).
The drought test phase ended after 2-3 weeks. At that time, the plant height was again measured and the growth rate was calculated as the difference between this and the previously-recorded height. The above-ground part portions of the plants were harvested and weighed to obtain fresh weight. The above-ground portion was also dried in an oven at 70° C. for 72 hours to obtain dry weight. All calculations were compared with matched untreated control plants.
The drought testing procedure was carried out in corn using a treatment of P12, P13-10, P13-11, P13-12, P13-14, P13-4, and P13-15 (SEQ ID NOs: 5, 16, 17, 18, 20, 10, and 21). Asterisks indicate statistical significance by P-value (*: P<0.1 and **: P<0.05)

soy = experiment: Drought resistance in seed-treated soy; settings: vs mock
Method: The effectiveness of peptide treatment in reducing drought stress was assessed in soy using a seed treatment strategy. This strategy largely mirrors examples 3 and 4.
Seeds were first sieved using mesh screens to a uniform size (14-17 mesh). The seeds were then coated with a mixture of peptide and Unicoat™ seed coat polymer in a Hege 11 Liquid Seed Treater (Wintersteiger) according to manufacturer recommendations. […]
3.5 inch pots were filled (approximately 0.2 L per pot) with Sunshine #1 mix (SunGro Horticulture), fertilized with 14-14-14 N,P,K Osmocote (Everris), and mixed for 20 minutes using a soil mixer M-5. Seeds were planted at a depth of 0.5 inch for germination. The pots were immediately irrigated by submergence then drained after about an hour. For each treatment group, 24 replicate seeds were planted. Plants were grown in a greenhouse under 16 hour light days at ˜75° F. and 8 hour dark nights at ˜65° F. Prior to drought conditions, the plants were well-watered.
Seven days after germination the heights of the plants were measured. This was determined as the distance between the soil surface and the shoot apical meristems (buds). The plants were randomized using a complete block design and subjected to a cyclic drought stress. Drought stress was imposed by withholding water for 3-4 days until the majority of plants were under medium to severe water stress. The severity of the stress was determined by the weight of the pot and visual determination of loss of turgor in the leaves (drooping). Once drought stress was attained, the pots were watered to full saturation. Full Saturation (100% pot capacity) is defined as the weight of the pot filled with water-saturated soil minus the weight of the filled pot prior to adding water. Drought stress was imposed for a total of 18 days.
At the end of the experiment (18 days after initiation of drought stress), the plant above the soil surface was then harvested for fresh and dry weights. Individual plants were cut near the soil surface and weighed immediately (fresh weight). The plants were then placed into labeled brown paper bags and dried in a 70° C. oven for 72 hours. A dry weight was then obtained. The following calculation was performed on the collected data: Fresh weight at harvest, and dry weight at harvest for the peptide-treated plants were expressed as a % change relative to the ‘mock’ treated plants.

Sequence: AGQTSGMSPMEQLMKIFADITQSLFGDQDG (P13-12 peptide) [Peptide P13-12]
- Effectiveness Covered (% decline in TMV lesions vs UTC) [1]: 37.9%
- Effectiveness Uncovered (% decline in TMV lesions vs UTC) [1]: 44.1%
- Drought tolerance activity in corn, result in words (corn; corn foliar spray): affords activity
- Dry Weight Increase (corn; foliar spray 0.2 μg/ml): 7.31* %
- Fresh Weight Increase (corn; foliar spray 0.2 μg/ml): 3.93* %
- % Change Dry Weight (soy; soy seed treatment 0.9 μg/seed): −0.37%
- % Change Fresh Weight (soy; soy seed treatment 0.9 μg/seed): 0.77%

Sequence: DDSLSGAGQTSGMSPMEQLMKIFADITQSLFGDQDG (P13-10 peptide) [Peptide P13-10]
- Effectiveness Covered (% decline in TMV lesions vs UTC) [1]: 92.4%
- Effectiveness Uncovered (% decline in TMV lesions vs UTC) [1]: 90.6* %
- Dry Weight Increase (corn; foliar spray 2 μg/ml): 7.56* %
- Fresh Weight Increase (corn; foliar spray 2 μg/ml): 4.44%
- % Change Dry Weight (soy; soy seed treatment 0.1 μg/seed): −1.66%
- % Change Fresh Weight (soy; soy seed treatment 0.1 μg/seed): 1.01%

Sequence: LSGAGQTSGMSPMEQLMKIFADITQSLFGDQDG (P13-11 peptide) [Peptide P13-11]
- Effectiveness Covered (% decline in TMV lesions vs UTC) [1]: 73.1%
- Effectiveness Uncovered (% decline in TMV lesions vs UTC) [1]: 74.9* %
- Dry Weight Increase (corn; foliar spray 0.2 μg/ml): 4.91* %
- Fresh Weight Increase (corn; foliar spray 0.2 μg/ml): 3.81* %
- % Change Dry Weight (soy; soy seed treatment 0.9 μg/seed): 0.16%
- % Change Fresh Weight (soy; soy seed treatment 0.9 μg/seed): 3.42%
